In patent publication US20200254059A1, “THERAPEUTIC AGENT OF UREMIA CONTAINING ALARIN AS THE MAIN INGREDIENT” (JU TIDE CO., LTD., priority 2017, published 2020):
“Also recorded” adds a separate entry of the source.

Tests used:
Format in all cases: in vivo
[1] = system: Cisplatin-induced uremia; assay: Blood biochemical test (serum BUN and CRE) in cisplatin-induced uremia Sprague-Dawley rat model
Protocol: (§1) The intravenous administration was done by fixing an animal into a correction frame, and slowly injecting at a rate of within 1 mL/min through the micro vein using a syringe equipped with 26 gauges needle. The intraperitoneal administration was performed by fixing the animal by a transdormal skin fixation method and intraperitoneally injecting using a syringe equipped with 26 gauges needle.
Serum obtained from the centrifugation was tested for blood urea nitrogen (BUN) and […] (CRE) using a blood biochemical analyzer (7180 Hitachi, Japan).

[2] = system: Cisplatin-induced uremia; assay: Kidney histopathological examination in cisplatin-induced uremia Sprague-Dawley rat model
Protocol: as §1
Finally, animals were inhaled with ether on an necropsy day to anesthetize and euthanize, and kidneys were extracted and fixed in a 10% neutral buffered formalin solution, and the fixed tissues were cut, dehydrated, paraffin embedded and hematoxylin & eosin stained to make a specimens for histopathological examination after these histological treatment. And then, the obtained specimen is subjected to speculum using an optical microscope (Olympus BX53, Japan).

[3] = Body weight in cisplatin-induced uremia Sprague-Dawley rat model; conditions: all test substance-administered groups (10 and 20 μg/head, single IV dose 8 h after cisplatin 5 mg/kg IP); Day 7; versus normal control group
Protocol: Cisplatin-induced uremia was evaluated for the effect of administration of test substance on an improvement of uremia in the Sprague-Dawley rat model. […] Cisplatin was intraperitoneally administered (IP) and test substance was intravenously administered (IV).

[4] = serum, high dose group (20 μg/1 mL/head, single IV), versus induced control group given excipient

With “H-Ala-Pro-Ala-His-Arg-Ser-Ser-Thr-Phe-Pro-Lys-Trp-Val-Thr-Lys-Thr-Glu-Arg-Gly-Arg-Gln-Pro-Leu-Arg-Ser-OH-trifluoroacetate salt (H-APAHRSSTFPKWVTKTERGRQPLRS-OH; also: trifluoroacetate salt) [test substance, human-derived alarin, peptide derived from a splice variant of galanin-like peptide (GALP) RNA]” the “improvement of uremia (overall conclusion)” value ([1]; cisplatin-induced uremia model, conclusion from blood biochemistry and histopathology) was “have an effect on the improvement of uremia”, the “blood urea nitrogen (BUN) level” value [1, 4] was “significantly lower; also recorded: significant difference” and the “creatinine (CRE) level” value [1, 4] was “significantly lower; also recorded: significant difference”. The blood biochemical level ([1]; single dose of 10 μg/1 mL/head and 20 μg/1 mL/head IV, versus control group of excipient) was “tendency to improve”, the “histopathological examination results, lesion level across doses” value ([2]; 10 and 20 μg/1 mL/head, single IV dose) was “dose-related change trend and significant changes in lesion level” and the “level of lesion, histopathological examination of kidney” value ([2]; high dose group (20 μg/head, single IV), H&E stained kidney, Day 7, versus control group) was “significantly lower”. The “weight level measured on the day of necropsy” value [3] was “no significant difference”.
